Measurements published in US7368430B2, “Selective inhibitors of nuclear factor-κB activation and uses thereof” (Research Development Foundation, priority 2003, dated 2008).
Where a SMILES comes first, the peptide text is derived from it.

Key:
KBM-5 cells = assay: Cytotoxicity assay (MTT assay); type: cell-based; conditions: 100 μM peptide; for effect on TNF-induced cytotoxicity (MTT): KBM-5 cells, TNF 72 h (FIG. 7A)
Description: Five thousand KBM-5 cells were seeded in triplicate in 96-well plates. Cells were pretreated with 100 μM PTD-p65-P1, and then incubated with the indicated concentrations of TNF for 72 hour. Thereafter, cell viability was analyzed by MTT assay.
Five thousand cells were seeded in triplicate in 96-well plates. Cells were pretreated with 100 μM protein transduction domain-p65-P1 and then incubated with indicated concentrations of TNF or doxorubicin or cisplatin for 72 hr. Thereafter, cell viability was analyzed by the MTT method.
The cytotoxic effects of […] were determined by the MTT uptake method as described (Manna et al., 2000a). Briefly, 5000 cells were incubated with synthetic peptides for 1 hour in triplicate in 96-well plates, and then treated with various concentration of TNF for 72 hours at 37° C. Thereafter, MTT solution was added to each well. After a 2-hr incubation at 37° C., extraction buffer (20% SDS, 50% dimethylformamide) was added, the cells were incubated overnight at 37° C., and then the OD was measured at 570 nm using a 96-well multiscanner (Dynex Technologies, MRX Revelation; Chantilly, Va.).

NF-κB = assay: EMSA of NF-κB activation in KBM-5 cells preincubated with peptides; type: cell-based; conditions: various concentrations of peptides 1 h, 0.1 nM TNF 30 min (FIG. 3C)
Description: NF-κB activation was examined by electrophoretic mobility shift assays as described (Chaturvedi et al., 1994; Takada and Aggarwal). Briefly, nuclear extracts prepared from TNF-treated cells (1×10^6/ml) were incubated with ^32P-end-labeled 45-mer double-stranded NF-κB oligonucleotide (10 ug of protein with 16 fmol of DNA) from the human immunodeficiency virus long terminal repeat, 5′-[…] CAGGGAGGCGTGG-3′ (SEQ ID NO. 1, boldface indicates NF-κB binding sites) for 30 min at 37° C., and the DNA-protein complex formed was separated from free oligonucleotide on 6.6% native polyacrylamide gels. […]
To determine the effects of peptide containing Ser 276 (PTD-p65-P1), KBM-5 cells was preincubated with the peptides for 1 h, and then treated with 0.1 nM TNF for the indicated times. Nuclear extracts were prepared, and NF-κB activation was analyzed by electrophoretic mobility shift assays (EMSA). […]
Lipopolysaccharide, IL-1, okadaic acid, PMA, H2O2, and cigarette smoke condensate are potent activators of NF-κB, but the mechanisms differ. […] Cells were preincubated with 150 μM protein transduction domain-p65-P1 for 1 h, treated with 0.1 nM TNF, 1 μg/ml LPS, 100 ng/ml IL-1, 500 nM okadaic acid, 10 ng/ml PMA, 500 μM H2O2, or 1 μg/ml cigarette smoke condensate and then analyzed for NF-κB activation by EMSA.

[1] = biological target: T1, NF-κB (p50-p65) binding to DNA (Homo sapiens, UniProt Q04206); assay: EMSA of NF-κB binding to DNA, nuclear extracts of TNF-treated cells incubated with peptides in vitro; type: biochemical; conditions: nuclear extracts of TNF-treated KBM-5 cells incubated 30 min with peptides (FIG. 2A)
T1 construct: endogenous in cells; host or cells: KBM-5 cells, TNF-treated, nuclear extract
T1 sequence (Q04206 whole entry): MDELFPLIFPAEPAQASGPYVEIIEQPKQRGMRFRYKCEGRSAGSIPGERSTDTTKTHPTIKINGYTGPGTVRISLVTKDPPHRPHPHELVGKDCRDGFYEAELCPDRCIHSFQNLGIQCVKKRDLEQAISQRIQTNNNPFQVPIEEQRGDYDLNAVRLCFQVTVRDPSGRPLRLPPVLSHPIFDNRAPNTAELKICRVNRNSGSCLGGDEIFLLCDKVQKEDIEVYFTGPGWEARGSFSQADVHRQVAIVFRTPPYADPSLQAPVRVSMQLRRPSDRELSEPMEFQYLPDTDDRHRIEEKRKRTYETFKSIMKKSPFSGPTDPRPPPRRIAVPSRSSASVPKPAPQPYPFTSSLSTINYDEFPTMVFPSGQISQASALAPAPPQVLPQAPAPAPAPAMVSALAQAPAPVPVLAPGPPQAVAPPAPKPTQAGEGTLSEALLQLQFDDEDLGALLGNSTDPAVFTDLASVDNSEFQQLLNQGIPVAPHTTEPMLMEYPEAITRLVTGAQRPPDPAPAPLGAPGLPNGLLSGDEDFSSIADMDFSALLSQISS
Description: Nuclear extracts were prepared from TNF-treated cells, incubated for 30 min with various concentrations of peptides, and then assayed for NF-κB activation by EMSA.
NF-κB activation was examined by electrophoretic mobility shift assays as described (Chaturvedi et al., 1994; Takada and Aggarwal). Briefly, nuclear extracts prepared from TNF-treated cells (1×10^6/ml) were incubated with ^32P-end-labeled 45-mer double-stranded NF-κB oligonucleotide (10 ug of protein with 16 fmol of DNA) from the human immunodeficiency virus long terminal repeat, 5′-[…] CAGGGAGGCGTGG-3′ (SEQ ID NO. 1, boldface indicates NF-κB binding sites) for 30 min at 37° C., and the DNA-protein complex formed was separated from free oligonucleotide on 6.6% native polyacrylamide gels. A double-stranded mutated oligonucleotide, 5′-[…]-3′(SEQ ID NO. 2) was used to examine the specificity of binding of NF-κB to the DNA. The specificity of binding was also examined by competition with unlabeled oligonucleotide.
The dose-dependent effect of protein transduction domain-p65-P1 and p65-P1 on p50-p65 binding to DNA was investigated. […] The protein transduction domain alone had no effect.

IKK complex = biological target: T2, IKK complex (Homo sapiens, UniProt O14920+O15111); assay: Cell-free phosphorylation of p65 peptides by immunoprecipitated IKK complex; type: biochemical; conditions: 10 μg of peptides as substrate (FIG. 5C)
T2 construct: Whole-cell extracts were prepared from TNF-treated cells and immunoprecipitated with antibody against IKK-α; endogenous in cells
T2 sequence (O15111 whole entry): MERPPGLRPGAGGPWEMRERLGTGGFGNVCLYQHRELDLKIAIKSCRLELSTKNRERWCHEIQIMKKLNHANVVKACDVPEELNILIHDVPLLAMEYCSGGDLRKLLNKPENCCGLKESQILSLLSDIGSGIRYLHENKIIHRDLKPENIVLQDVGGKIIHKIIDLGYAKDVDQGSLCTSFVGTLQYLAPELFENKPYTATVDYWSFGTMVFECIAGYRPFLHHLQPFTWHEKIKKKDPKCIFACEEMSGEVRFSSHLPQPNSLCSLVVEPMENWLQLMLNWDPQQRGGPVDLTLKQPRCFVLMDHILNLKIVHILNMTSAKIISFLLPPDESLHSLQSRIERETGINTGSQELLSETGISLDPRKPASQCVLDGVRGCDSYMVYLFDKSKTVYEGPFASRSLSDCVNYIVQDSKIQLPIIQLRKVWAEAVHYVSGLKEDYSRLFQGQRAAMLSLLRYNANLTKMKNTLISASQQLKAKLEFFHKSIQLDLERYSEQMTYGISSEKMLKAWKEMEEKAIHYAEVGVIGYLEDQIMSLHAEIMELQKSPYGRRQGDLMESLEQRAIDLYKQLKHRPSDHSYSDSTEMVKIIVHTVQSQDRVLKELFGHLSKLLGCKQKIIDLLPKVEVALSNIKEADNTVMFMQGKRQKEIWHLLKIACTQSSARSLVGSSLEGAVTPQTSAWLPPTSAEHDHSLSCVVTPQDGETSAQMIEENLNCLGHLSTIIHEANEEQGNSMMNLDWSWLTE
T2 sequence (O14920 whole entry): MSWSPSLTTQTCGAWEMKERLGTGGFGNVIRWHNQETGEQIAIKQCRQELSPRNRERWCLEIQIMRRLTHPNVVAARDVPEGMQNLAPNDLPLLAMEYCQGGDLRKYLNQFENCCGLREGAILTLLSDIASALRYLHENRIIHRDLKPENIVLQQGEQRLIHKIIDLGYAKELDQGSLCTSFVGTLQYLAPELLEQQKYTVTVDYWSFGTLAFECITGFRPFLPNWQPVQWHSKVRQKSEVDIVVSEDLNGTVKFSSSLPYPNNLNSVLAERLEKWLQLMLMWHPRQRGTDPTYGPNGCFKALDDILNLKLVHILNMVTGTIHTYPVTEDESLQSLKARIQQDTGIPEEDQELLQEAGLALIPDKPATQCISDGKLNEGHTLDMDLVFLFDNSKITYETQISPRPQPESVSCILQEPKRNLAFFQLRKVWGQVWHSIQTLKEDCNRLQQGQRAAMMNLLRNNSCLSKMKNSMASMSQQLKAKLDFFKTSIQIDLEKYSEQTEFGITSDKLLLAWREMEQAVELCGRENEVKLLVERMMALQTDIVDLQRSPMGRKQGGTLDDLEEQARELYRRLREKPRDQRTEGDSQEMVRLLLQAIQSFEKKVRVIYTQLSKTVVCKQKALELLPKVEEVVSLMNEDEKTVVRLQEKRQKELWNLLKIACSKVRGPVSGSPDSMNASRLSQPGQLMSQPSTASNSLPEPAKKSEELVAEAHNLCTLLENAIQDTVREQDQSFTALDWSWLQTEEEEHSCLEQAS
T2 sequence (Q9Y6K9 whole entry partner): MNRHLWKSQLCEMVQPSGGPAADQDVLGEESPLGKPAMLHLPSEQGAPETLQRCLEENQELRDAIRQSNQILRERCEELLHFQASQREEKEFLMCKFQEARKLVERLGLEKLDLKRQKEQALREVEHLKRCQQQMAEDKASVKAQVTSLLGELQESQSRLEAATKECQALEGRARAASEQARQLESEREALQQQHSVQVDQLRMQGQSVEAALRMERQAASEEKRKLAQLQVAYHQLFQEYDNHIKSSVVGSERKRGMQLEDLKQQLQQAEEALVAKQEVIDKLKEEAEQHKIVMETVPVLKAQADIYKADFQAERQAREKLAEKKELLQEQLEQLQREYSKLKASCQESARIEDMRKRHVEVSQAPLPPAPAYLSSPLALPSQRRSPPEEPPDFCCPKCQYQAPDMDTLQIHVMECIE
Description: Whole-cell extracts were prepared from TNF-treated cells and immunoprecipitated with antibody against IKK-α. Thereafter immunocomplex kinase assay was performed in the presence of the peptides as a substrate.
To determine the total amounts of IKK-α and IKK-β in each sample, […] of the whole-cell protein was resolved on 7.5% SDS-PAGE, electrotransferred to a nitrocellulose membrane, and then blotted with either anti-IKK-α or anti-IKK-β antibodies. Cell-free phosphorylation of peptide by IKK was also determined using 10 μg of peptides as a substrate in the kinase reaction mixture described above, and then fractionated on 20% SDS-PAGE in 2×SDS electrophoresis buffer.
p65-P1 and p65-p6 have one or two serine residues respectively. Whether these serine residues can be phosphorylated by IKK was investigated. Whole-cell extracts from TNF-treated cells were immunoprecipitated with antibody against IKK and then immunocomplex kinase assay was performed using p65-peptides as substrates. After reaction, samples were fractionated on 20% SDS-PAGE with 2-fold electrophoresis buffer.

Compound	effect on TNF-induced cytotoxicity (MTT) (KBM-5 cells)	inhibition of NF-κB binding to the DNA in vitro [1]	also measured
CC[C@H](C)[C@H](NC(=O)[C@H](CCCCN)NC(=O)[C@@H](NC(=O)[C@H](CCC(N)=O)NC(=O)[C@H](CCCNC(=N)N)NC(=O)[C@@H](N)CC(=O)O)[C@@H](C)CC)C(=O)N[C@@H](Cc1c[nH]c2ccccc12)C(=O)N[C@@H](Cc1ccccc1)C(=O)N[C@@H](CCC(N)=O)C(=O)N[C@@H](CC(N)=O)C(=O)N[C@@H](CC(N)=O)C(=O)N[C@@H](CCCNC(=N)N)C(=O)N[C@@H](CCCNC(=N)N)C(=O)N[C@@H](CCSC)C(=O)N[C@@H](CCCCN)C(=O)N[C@@H](Cc1c[nH]c2ccccc12)C(=O)N[C@@H](CCCCN)C(=O)N[C@@H](CCCCN)C(=O)N[C@@H](CCC(N)=O)C(=O)N[C@@H](CC(C)C)C(=O)N[C@@H](CCCNC(=N)N)C(=O)N[C@@H](CCCNC(=N)N)C(=O)N1CCC[C@H]1C(=O)N[C@@H](CO)C(=O)N[C@@H](CC(=O)O)C(=O)N[C@@H](CCCNC(=N)N)C(=O)N[C@@H](CCC(=O)O)C(=O)N[C@@H](CC(C)C)C(=O)N[C@@H](CO)C(=O)N[C@@H](CCC(=O)O)C(=O)O [PTD-p65-P1] (H-DRQIKIWFQNNRRMKWKKQLRRPSDRELSE-OH)	enhanced TNF-induced cytotoxicity		effect on cisplatin-induced cytotoxicity (MTT) (KBM-5 cells; cisplatin 72 hr (FIG. 7D bottom panel)): potentiated; effect on doxorubicin-induced cytotoxicity (MTT) (KBM-5 cells; doxorubicin 72 hr (FIG. 7D top panel)): potentiated
CC(C)C[C@H](NC(=O)[C@H](CCC(=O)O)NC(=O)[C@H](CCCNC(=N)N)NC(=O)[C@H](CC(=O)O)NC(=O)[C@H](CO)NC(=O)[C@@H]1CCCN1C(=O)[C@H](CCCNC(=N)N)NC(=O)[C@H](CCCNC(=N)N)NC(=O)[C@H](CC(C)C)NC(=O)[C@@H](N)CCC(N)=O)C(=O)N[C@@H](CO)C(=O)N[C@@H](CCC(=O)O)C(=O)O [p65-P1, QLRRPSDRELSE] (H-QLRRPSDRELSE-OH)	had no effect		
CC[C@H](C)[C@H](NC(=O)[C@H](CCCCN)NC(=O)[C@@H](NC(=O)[C@H](CCC(N)=O)NC(=O)[C@H](CCCNC(=N)N)NC(=O)[C@@H](N)CC(=O)O)[C@@H](C)CC)C(=O)N[C@@H](Cc1c[nH]c2ccccc12)C(=O)N[C@@H](Cc1ccccc1)C(=O)N[C@@H](CCC(N)=O)C(=O)N[C@@H](CC(N)=O)C(=O)N[C@@H](CC(N)=O)C(=O)N[C@@H](CCCNC(=N)N)C(=O)N[C@@H](CCCNC(=N)N)C(=O)N[C@@H](CCSC)C(=O)N[C@@H](CCCCN)C(=O)N[C@@H](Cc1c[nH]c2ccccc12)C(=O)N[C@@H](CCCCN)C(=O)N[C@@H](CCCCN)C(=O)O [protein transduction domain, reference compound] (H-DRQIKIWFQNNRRMKWKK-OH)	had no effect		
PTD-p65-P6: SEQ ID NO. 10; antennapedia protein transduction domain linked to amino acid 525-537 of the p65 subunit (DRQIKIWFQNNRRMKWKKNGLLSGDEDFSS; CHAIN PTD-p65-P6, cell permeable NF-kb inhibitor)			effect on TNF-induced NF-κB activation (EMSA, dose response) (NF-κB): inhibited TNF-induced NF-κB activation in a dose dependent manner
p65-P2: Peptide in which Ser 276 was mutated (QLRRPADRELSE; CHAIN p65-P2, mutated peptide derived from the p65 subunit of NF-kB)		did not inhibit	
p65-P4: Peptide in which five amino acid residues were deleted from the C-terminus (QLRRPSD; CHAIN p65-P4, mutated peptide derived from the p65 subunit of NF-kB)		inactive	
p65-P5: Peptide in which three amino acid residues were deleted from the N-terminus (RPSDRELSE; CHAIN p65-P5, mutated peptide derived from the p65 subunit of NF-kB)		inactive	
p65-P6: SEQ ID NO. 11; p65 peptide containing Ser 529 and 536, amino acid 525-537 of the p65 subunit (NGLLSGDEDFSS; CHAIN p65-P6, peptide derived from the p65 subunit of NF-kB)			effect on TNF-induced NF-κB activation (EMSA, dose response) (NF-κB): Neither a protein transduction domain nor p65-P6 alone had any effect; phosphorylation of the peptide by IKK complex (IKK complex): can phosphorylate
p65-P7: Peptide in which Ser 529 was mutated (NGLLAGDEDFSS; CHAIN p65-P7, mutated peptide derived from the p65 subunit of NF-kB)		did not inhibit	
p65-p8: Peptide in which Ser 536 was mutated (NGLLSGDEDFSA; CHAIN p65-P8, mutated peptide derived from the p65 subunit of NF-kB)		did not inhibit	
